Laboratory results taken from patent publication US11154563B2, “Immunoproteasome inhibitors” (Principia Biopharma Inc., priority 2017, dated 2021).

Legend:
[1] = target: immunoproteasome LMP7/B5i subunit (Homo sapiens, UniProt P20618+P28062); assay: Caliper-based proteasome enzymatic activity assay, LMP7; assay type: biochemical; settings: human recombinant immunoproteasome 0.3 nM, FAM-peptide substrate 1 μM, 3 h at rt
Description: (§1) A Caliper-based proteasome assay (Caliper Life Sciences, Hopkinton, Mass.) was used to measure inhibition of the immunoproteasome LMP7/B5i subunit, the immunoproteasome LPM2/β1i subunit, and the constitutive proteasome β5c unit for a compound of Formula (I). For LMP7 and β5c, serial dilutions of test compounds were incubated with either human recombinant immunoprotcasome or constitutive proteasome (0.3 nM enzyme) and a carboxyfluorescein (FAM)-labeled peptide substrate FAM-TYETFKSIMKKSPF-NH2 (1 μM) at it for 3 h. The reaction was then terminated with a buffer containing the known proteasome inhibitor carfilzomib at a concentration of 5 uM. For LMP2, serial dilutions of test compounds were incubated with human recombinant immunoproteasome proteasome (0.3 nM enzyme) and a carboxyfluorescein (FAM)-labeled peptide substrate FAM-[…]-NH2 (1 μM) at rt for 2 h. The reaction was then terminated with a buffer containing the known proteasome inhibitor ixazomib at a concentration of 6.7 uM. The reaction buffer was 20 mM Hepes pH 7.4, 0.01% bovine serum albumin, 0.015% SDS, 0.5 mM EDTA, 1%0/DMSO. The peptide cleavage reaction product was quantified on a Caliper LabChip 3000. Percent inhibition was calculated for each compound dilution and the concentration that produced 50% inhibition was calculated. This value is presented as the IC50.

[2] = target: constitutive proteasome β5c unit (Homo sapiens, UniProt P20618+P28074); assay: Caliper-based proteasome enzymatic activity assay, β5c; assay type: biochemical; settings: human recombinant constitutive proteasome 0.3 nM, FAM-peptide substrate 1 μM, 3 h at rt; read-out: β5c subunit IC50
Description: as §1

SMILES | IC50 [1] | IC50 [2]
CC(C)(C=C(C#N)C(=O)N1C[C@@H]2C[C@@H]2[C@@H]1COC(=O)N[C@@H](Cc1ccc(F)cc1)B(O)O)N1CCC(F)(F)C1 [Example 108] | 0.9 nM | 830 nM
CC(C)(/C=C(/C#N)C(=O)N1CCCC[C@@H]1COC(=O)N[C@@H](Cc1ccccc1)B(O)O)N1CCC(F)(F)C1 [Example 103, ((R)-1-(((((R)-1-((Z)-2-cyano-4-(3,3-difluoropyrrolidin-1-yl)-4-methylpent-2-enoyl)piperidin-2-yl)methoxy)carbonyl)amino)-2-phenylethyl)boronic acid] | 5.3 nM | 2310 nM
C=CC(=O)N1CCC(F)(F)C[C@@H]1COC(=O)N[C@@H](Cc1coc2ccccc12)B(O)O [Example 112, ((R)-1-(((((R)-1-acryloyl-4,4-difluoropiperidin-2-yl)methoxy)carbonyl)amino)-2-(benzofuran-3-yl)ethyl)boronic acid] | 2.5 nM | 95 nM
CC(C)(C)/C=C(\C#N)C(=O)N1CCNC[C@@H]1COC(=O)N[C@@H](Cc1ccccc1)B(O)O [Example 128, ((R)-1-(((((R)-1-((E)-2-cyano-4,4-dimethylpent-2-enoyl)piperazin-2-yl)methoxy)carbonyl)amino)-2-phenylethyl)boronic acid] | 2.3 nM | 2730 nM
CC(C)(C=C(C#N)C(=O)N1CCCC[C@@H]1COC(=O)N[C@@H](Cc1ccc(C#N)cc1)B(O)O)N1CCC(F)(F)C1 [Example 122, ((R)-1-(((((R)-1-(2-cyano-4-(3,3-difluoropyrrolidin-1-yl)-4-methylpent-2-enoyl)piperidin-2-yl)methoxy)carbonyl)amino)-2-(4-cyanophenyl)ethyl)boronic acid] | 1.5 nM | 4180 nM
C=CC(=O)N1C[C@H](F)C[C@@H]1COC(=O)N[C@@H](Cc1ccccc1)B(O)O [Example 89, ((R)-1-(((((2R,4R)-1-acryloyl-4-fluoropyrrolidin-2-yl)methoxy)carbonyl)amino)-2-phenylethyl)boronic acid] | 73 nM | 1850 nM
C=CC(=O)N1C[C@@H]2C[C@@H]2[C@@H]1COC(=O)N[C@@H](Cc1ccccc1)B(O)O [Example 99, ((R)-1-(((((1S,2R,5R)-3-acryloyl-3-azabicyclo[3.1.0]hexan-2-yl)methoxy)carbonyl)amino)-2-phenylethyl)boronic acid] | 68 nM | 1990 nM
C=CC(=O)N1C[C@@H]2C[C@@H]2[C@@H]1COC(=O)N[C@@H](Cc1ccc(C(F)(F)F)cc1)B(O)O [Example 115, ((R)-1-(((((1S,2R,5R)-3-acryloyl-3-azabicyclo[3.1.0]hexan-2-yl)methoxy)carbonyl)amino)-2-(4-(trifluoromethyl)phenyl)ethyl)boronic acid] | 2.6 nM | 2930 nM
CC(C)(C=C(C#N)C(=O)N1CCOC[C@@H]1COC(=O)N[C@@H](Cc1ccccc1)B(O)O)N1CCC(F)(F)C1 [Example 94, ((R)-1-(((((R)-4-(2-cyano-4-(3,3-difluoropyrrolidin-1-yl)-4-methylpent-2-enoyl)morpholin-3-yl)methoxy)carbonyl)amino)-2-phenylethyl)boronic acid] | 2 nM | 1760 nM
CC(C)(C=C(C#N)C(=O)N1CCC[C@]1(C)COC(=O)N[C@@H](Cc1coc2ccccc12)B(O)O)N1CCC(F)(F)C1 [Example 117, ((R)-2-(benzofuran-3-yl)-1-(((((R)-1-(2-cyano-4-(3,3-difluoropyrrolidin-1-yl)-4-methylpent-2-enoyl)-2-methylpyrrolidin-2-yl)methoxy)carbonyl)amino)ethyl)boronic acid] | 0.8 nM | 640 nM
COc1ccc(C[C@H](NC(=O)OC[C@H]2CCCCN2C(=O)C(C#N)=CC(C)(C)N2CCC(F)(F)C2)B(O)O)cc1 [Example 78, ((R)-1-(((((R)-1-(2-cyano-4-(3,3-difluoropyrrolidin-1-yl)-4-methylpent-2-enoyl)piperidin-2-yl)methoxy)carbonyl)amino)-2-(4-methoxyphenyl)ethyl)boronic acid] | 4.8 nM | 1270 nM
CC(C)(C=C(C#N)C(=O)N1C[C@@H]2C[C@@H]2[C@@H]1COC(=O)N[C@@H](Cc1coc2ccccc12)B(O)O)N1CCC(F)(F)C1 [Example 54, ((R)-2-(benzofuran-3-yl)-1-(((((1S,2R,5R)-3-(2-cyano-4-(3,3-difluoropyrrolidin-1-yl)-4-methylpent-2-enoyl)-3-azabicyclo[3.1.0]hexan-2-yl)methoxy)carbonyl)amino)ethyl)boronic acid] | 1.6 nM | 192 nM
C=CC(=O)N1C[C@@H]2C[C@@H]2[C@@H]1COC(=O)N[C@@H](Cc1ccc(F)cc1)B(O)O [Example 109, ((R)-1-(((((1S,2R,5R)-3-acryloyl-3-azabicyclo[3.1.0]hexan-2-yl)methoxy)carbonyl)amino)-2-(4-fluorophenyl)ethyl)boronic acid] | 6.4 nM | 3320 nM
Cc1ccc(C[C@H](NC(=O)OC[C@H]2[C@H]3C[C@H]3CN2C(=O)C(C#N)=CC2(C)CCOCC2)B(O)O)cc1 [Example 92, ((R)-1-(((((1S,2R,5R)-3-(2-cyano-3-(4-methyltetrahydro-2H-pyran-4-yl)acryloyl)-3-azabicyclo[3.1.]hexan-2-yl)methoxy)carbonyl)amino)-2-(p-tolyl)ethyl)boronic acid] | 1.9 nM | 2240 nM
CC(C)(C)C=C(C#N)C(=O)N1C[C@@H]2C[C@@H]2[C@@H]1COC(=O)N[C@@H](Cc1coc2ccccc12)B(O)O [Example 48, ((R)-2-(benzofuran-3-yl)-1-(((((1S,2R,5R)-3-(2-cyano-4,4-dimethylpent-2-enoyl)-3-azabicyclo[3.1.0]hexan-2-yl)methoxy)carbonyl)amino)ethyl)boronic acid] | 0.6 nM | 115 nM

Further lines, results first:

IC50 [1] | IC50 [2] | SMILES
4.2 nM | 90 nM | C=CC(=O)N1CCS(=O)(=O)C[C@@H]1COC(=O)N[C@@H](Cc1coc2ccccc12)B(O)O [Example 111]
0.5 nM | 141 nM | CC(C)(C=C(C#N)C(=O)N1CCC[C@@H]1COC(=O)N[C@@H](Cc1coc2ccccc12)B(O)O)N1CCC(F)(F)C1 [Example 42, ((R)-2-(benzofuran-3-yl)-1-(((((R)-1-(2-cyano-4-(3,3-difluoropyrrolidin-1-yl)-4-methylpent-2-enoyl)pyrrolidin-2-yl)methoxy)carbonyl)amino)ethyl)boronic acid]
> 5000 nM | > 5000 nM | CC1(C=C(C#N)C(=O)N2C[C@@H]3C[C@@H]3[C@@H]2COC(=O)N[C@@H](Cc2ccc(F)cc2)B(O)O)CCOCC1 [Example 119, ((R)-1-(((((1S,2R,5R)-3-(2-cyano-3-(4-methyltetrahydro-2H-pyran-4-yl)acryloyl)-3-azabicyclo[3.1.0]hexan-2-yl)methoxy)carbonyl)amino)-2-(4-fluorophenyl)ethyl)boronic acid]
5 nM | 900 nM | CC(C)(C=C(C#N)C(=O)N1CCCC[C@@H]1COC(=O)N[C@@H](Cc1ccc(F)cc1)B(O)O)N1CCN(C2COC2)CC1 [Example 127, ((R)-1-(((((R)-1-(2-cyano-4-methyl-4-(4-(oxetan-3-yl)piperazin-1-yl)pent-2-enoyl)piperidin-2-yl)methoxy)carbonyl)amino)-2-(4-fluorophenyl)ethyl)boronic acid]
1.4 nM | 230 nM | CC(C)(C=C(C#N)C(=O)N1CCCCC[C@@H]1COC(=O)N[C@@H](Cc1coc2ccccc12)B(O)O)N1CCOCC1 [Example 63, ((R)-2-(benzofuran-3-yl)-1-(((((R)-1-(2-cyano-4-methyl-4-morpholinopent-2-enoyl)-azepan-2-yl)methoxy)carbonyl)amino)ethyl)boronic acid]
1.1 nM | 128 nM | CC(C)(C=C(C#N)C(=O)N1CCCC[C@@H]1COC(=O)N[C@@H](Cc1coc2ccccc12)B(O)O)N1CCC(F)(F)C1 [Example 47]
1 nM | 187 nM | CC(C)(C=C(C#N)C(=O)N1CCCC[C@@H]1COC(=O)N[C@@H](Cc1coc2ccccc12)B(O)O)N1CCOCC1 [Example 46, ((R)-2-(benzofuran-3-yl)-1-(((((R)-1-(2-cyano-4-methyl-4-morpholinopent-2-enoyl)piperidin-2-yl)methoxy)carbonyl)amino)ethyl)boronic acid]
0.9 nM | 232 nM | CC(C)(C=C(C#N)C(=O)N1CCCC[C@@H]1COC(=O)N[C@@H](Cc1coc2ccccc12)B(O)O)N1CCN(C2COC2)CC1 [Example 60, ((R)-2-(benzofuran-3-yl)-1-(((((R)-1-(2-cyano-4-methyl-4-(4-(oxetan-3-yl)piperazin-1-yl)pent-2-enoyl)piperidin-2-yl)methoxy)carbonyl)amino)ethyl)boronic acid]
0.8 nM | 23 nM | CC(C)(C=C(C#N)C(=O)N1CCOC[C@@H]1COC(=O)N[C@@H](Cc1coc2ccccc12)B(O)O)N1CCOCC1 [Example 58, ((R)-2-(benzofuran-3-yl)-1-(((((R)-4-(2-cyano-4-methyl-4-morpholinopent-2-enoyl)morpholin-3-yl)methoxy)carbonyl)amino)ethyl)boronic acid]
